Measured values: patent publication US20230097866A1, “BACTERIAL TOPOISOMERASE INHIBITORS DERIVED FROM ISOMANNIDE” (Ohio State Innovation Foundation, priority 2020, published 2023)
pIC50: −log10 of the molar value. ≈ marks a conversion by molar mass, not a printed value. Read-outs that look alike come from different tables or passages of the source.

What was measured:
[1] = test system: Streptococcus pyogenes LSI-1235; test: MIC panel (Laboratory Specialists, Inc.), S. pyogenes; assay type: cell-based; details: LSI1235, Cmpd. 6, CLSI broth microdilution
[2] = test system: Klebsiella pneumoniae LSI-2999; test: MIC panel (Laboratory Specialists, Inc.), K. pneumoniae; assay type: cell-based; details: LSI2999, Cmpd. 6, CLSI broth microdilution
[3] = target: S. aureus DNA gyrase (Staphylococcus aureus, UniProt P20831); test: Inhibition of DNA gyrase, biochemical assay (Inspiralis); details: S. aureus DNA gyrase; Inspiralis, Ltd.; read-out: Gyrase IC50
[4] = test system: S. aureus ATCC 29213; test: microbe, parasite or virus in culture; assay type: cell-based; details: Staphylococcus aureus, ATCC29213, read-out: S. aureus ATCC 29213 MIC (n = 2); CLSI agar dilution
Protocol: In order to determine the spontaneous mutation frequency of investigational agents (Table 4), the MIC was first determined using the agar dilution method as recommended by the Clinical and Laboratory Standards Institute.
Triplicate independent inocula of S. aureus ATCC 29213 were evaluated.

[5] = test system: S. aureus ATCC 29213; assay type: cell-based, Staphylococcus aureus; details: S. aureus ATCC 29213
[6] = target: T1, Kir2.1 Human Potassium Ion Channel (Homo sapiens, UniProt P63252); test: Kir2.1 QPatch CiPA assay; assay type: cell-based; details: mean, duplicate
T1 construct: expressed in transfected cells
T1 sequence (P63252 1-427): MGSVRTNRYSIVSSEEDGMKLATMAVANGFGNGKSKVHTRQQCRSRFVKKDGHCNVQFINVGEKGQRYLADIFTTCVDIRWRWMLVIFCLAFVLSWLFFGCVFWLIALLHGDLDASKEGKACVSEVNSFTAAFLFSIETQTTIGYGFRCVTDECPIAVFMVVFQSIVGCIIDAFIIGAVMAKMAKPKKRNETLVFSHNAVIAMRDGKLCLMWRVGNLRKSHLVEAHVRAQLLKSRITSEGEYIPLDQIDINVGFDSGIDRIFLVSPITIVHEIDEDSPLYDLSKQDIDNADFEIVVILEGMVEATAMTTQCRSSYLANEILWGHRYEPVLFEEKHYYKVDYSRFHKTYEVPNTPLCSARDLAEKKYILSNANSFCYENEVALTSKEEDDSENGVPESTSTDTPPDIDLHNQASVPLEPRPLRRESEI
Description: Early drug discovery programs commonly assess hERG inhibition as the only indicator of potential cardiovascular safety concerns. Researchers have recently recommended a more rigorous evaluation of multiple cardiac ion channels to provide a more comprehensive cardiovascular risk assessment (Fermini, B., et al., A New Perspective in the Field of Cardiac Safety Testing through the Comprehensive In Vitro Proarrhythmia Assay Paradigm. J. Biomolec. Screening 2016, 21, 1-11). Given the promising initial results for 6, further evaluation was undertaken (in duplicate) in a Comprehensive in vitro Proarrhythmia Assay (CiPA) eight assay panel run on the QPatch HT (Sophion, Denmark) automated patch clamp system at three concentrations (3, 30, and 100 μM). All data were filtered for seal quality, seal drop, and current amplitude. A stock solution of the test compound at 30 mM concentration was prepared in DMSO.
The parameters measured were the maximum inward current evoked on stepping to −120 mV from the test pulse. The peak current amplitude was calculated before and after compound addition and the amount of block was assessed by dividing the Test compound current amplitude by the Control current amplitude. Control is the mean hKir2.1 current amplitude collected 15 seconds at the end of the control; Test Compound is the mean hKir2.1 current amplitude peak and end collected in the presence of test compound at each concentration. The positive control was barium chloride.

[7] = target: 5-HT2B (Homo sapiens, UniProt P41595); test: Off-target safety panel, 5-HT2B; assay type: binding; details: duplicate, read-out: % Inhibition at 100 μM conc., 5-HT2B
Protocol: (§1) Potential off-target pharmacology for compound 6 was also evaluated by screening in duplicate against a panel (Bowes, J., et al., Reducing Safety-Related Drug Attrition: The Use of in vitro Pharmacological Profiling. Nat. Rev. Drug Disc. 2012, 11, 909-922) of 44 receptors, enzymes, etc. Of the 44 potential targets, only five were inhibited by >50% at a concentration of 100 μM (Table 7).

[8] = target: Dopamine transporter (Homo sapiens, UniProt Q01959); test: Off-target safety panel, dopamine transporter; assay type: binding; details: duplicate, read-out: % Inhibition at 100 μM conc., Dopamine transporter
Protocol: as §1

[9] = test system: Caco-2 cells; assay type: in vitro ADME; details: human, Caco-2, 10 μM, pH 7.4
Protocol: Caco-2 cells were plated on Transwell inserts and permeability assays were performed at day 21-25 post-plating. A single concentration of test compound (10 μM final) was prepared in HSS-HEPES buffer (pH 7.4) with a final DMSO concentration of 0.1%. To determine apical to basolateral (A to B) transport, test compounds were applied to the apical compartment in the presence and absence of the P-gp inhibitor verapamil (100 μM final). Atenolol and caffeine were assayed as control compounds. Samples were collected at various time points and analyzed using LC-MS/MS methods to determine the apparent permeability coefficient (Papp), efflux ratio, and recovery of the test compound.
Transport in the opposite direction (B to A) was also determined.

[10] = target: T2, CYP1A2 (Homo sapiens, UniProt P05177); assay type: in vitro ADME; details: 10 μM; human liver microsomes
T2 construct: incubated with human liver microsomes (mixed gender, pool of 50 donors, 0.1 mg/mL); from tissue; host or cells: human liver microsomes, pool of 50 donors
Protocol: (§2) CYP450 inhibition assays was conducted using individual enzyme substrates and inhibitors instead of a cocktail to avoid interferences. CYP450 isoforms tested included the following: CYP1A2, CYP2B6, CYP2C8, CYP2C9, CYP2C19, CYP2D6, and CYP3A4. Each test compound was screened at a final concentration of 10 μM. Each test compound was incubated with human liver microsomes (mixed gender, pool of 50 donors, 0.1 mg/mL), CYP450-selective probe substrates, and co-factors (NADPH, MgCl2) in phosphate buffer (pH 7.4) for 10-30 min in a 96-well plate at 37° C. The reactions were stopped by transferring the reaction mixture to acetonitrile/methanol. Samples were mixed and centrifuged, and the supernatants analyzed by LC-MS/MS to quantify percent inhibition relative to vehicle control.

[11] = target: T3, CYP2C9 (Homo sapiens, UniProt P11712); test: CYP450 inhibition in human liver microsomes, CYP2C9; assay type: in vitro ADME; details: 10 μM
T3 construct: incubated with human liver microsomes (mixed gender, pool of 50 donors, 0.1 mg/mL); from tissue; host or cells: human liver microsomes, pool of 50 donors
Protocol: as §2

[12] = read-out: % Inhibition Kir2.1 (end current)
[13] = read-out: % Inhibition Kir2.1 (peak current)

T3 sequence (P11712 whole entry): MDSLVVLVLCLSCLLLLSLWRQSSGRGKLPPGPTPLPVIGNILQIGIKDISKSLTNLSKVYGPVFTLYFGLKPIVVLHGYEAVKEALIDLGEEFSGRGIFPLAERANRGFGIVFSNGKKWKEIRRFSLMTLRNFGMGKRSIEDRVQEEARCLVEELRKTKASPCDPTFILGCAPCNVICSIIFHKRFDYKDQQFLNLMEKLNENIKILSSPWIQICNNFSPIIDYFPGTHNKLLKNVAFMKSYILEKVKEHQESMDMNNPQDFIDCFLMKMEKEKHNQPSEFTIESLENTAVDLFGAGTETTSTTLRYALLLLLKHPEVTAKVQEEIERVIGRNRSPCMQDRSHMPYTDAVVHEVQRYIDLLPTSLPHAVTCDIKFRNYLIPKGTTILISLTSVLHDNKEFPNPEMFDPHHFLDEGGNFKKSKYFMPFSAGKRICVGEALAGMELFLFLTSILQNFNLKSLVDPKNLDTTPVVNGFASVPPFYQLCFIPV
Sequence of Dopamine transporter (Q01959 whole entry): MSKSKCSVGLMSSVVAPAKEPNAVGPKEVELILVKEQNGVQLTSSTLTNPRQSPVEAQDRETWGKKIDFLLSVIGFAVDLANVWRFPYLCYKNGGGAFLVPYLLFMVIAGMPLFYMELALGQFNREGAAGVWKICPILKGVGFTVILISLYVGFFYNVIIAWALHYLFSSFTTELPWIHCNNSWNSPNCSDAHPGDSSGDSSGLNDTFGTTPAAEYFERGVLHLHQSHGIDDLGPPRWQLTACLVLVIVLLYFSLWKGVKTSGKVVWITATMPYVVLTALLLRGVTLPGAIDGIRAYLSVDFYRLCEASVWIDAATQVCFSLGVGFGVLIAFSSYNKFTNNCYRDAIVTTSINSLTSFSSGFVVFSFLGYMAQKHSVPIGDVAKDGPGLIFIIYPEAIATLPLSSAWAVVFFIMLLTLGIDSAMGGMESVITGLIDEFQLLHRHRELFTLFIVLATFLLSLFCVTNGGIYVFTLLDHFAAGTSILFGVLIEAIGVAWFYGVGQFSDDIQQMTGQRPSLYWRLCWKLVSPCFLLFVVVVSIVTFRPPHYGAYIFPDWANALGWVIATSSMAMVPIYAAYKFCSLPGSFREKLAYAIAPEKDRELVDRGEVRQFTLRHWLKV
T2 sequence (P05177 whole entry): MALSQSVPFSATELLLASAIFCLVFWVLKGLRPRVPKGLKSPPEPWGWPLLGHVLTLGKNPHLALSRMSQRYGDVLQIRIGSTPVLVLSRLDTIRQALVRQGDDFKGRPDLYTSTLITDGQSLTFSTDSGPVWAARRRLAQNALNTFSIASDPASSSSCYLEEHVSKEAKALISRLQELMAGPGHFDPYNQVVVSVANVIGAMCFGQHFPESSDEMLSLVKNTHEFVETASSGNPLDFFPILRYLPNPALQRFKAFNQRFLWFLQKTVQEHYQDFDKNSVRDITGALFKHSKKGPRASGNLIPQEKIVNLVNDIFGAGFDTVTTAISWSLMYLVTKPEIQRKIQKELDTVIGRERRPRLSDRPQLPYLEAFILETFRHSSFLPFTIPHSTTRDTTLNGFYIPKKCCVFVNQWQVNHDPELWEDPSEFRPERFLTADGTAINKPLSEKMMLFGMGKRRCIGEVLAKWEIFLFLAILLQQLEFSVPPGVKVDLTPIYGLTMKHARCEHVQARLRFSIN
Sequence of 5-HT2B (P41595 whole entry, species assumed): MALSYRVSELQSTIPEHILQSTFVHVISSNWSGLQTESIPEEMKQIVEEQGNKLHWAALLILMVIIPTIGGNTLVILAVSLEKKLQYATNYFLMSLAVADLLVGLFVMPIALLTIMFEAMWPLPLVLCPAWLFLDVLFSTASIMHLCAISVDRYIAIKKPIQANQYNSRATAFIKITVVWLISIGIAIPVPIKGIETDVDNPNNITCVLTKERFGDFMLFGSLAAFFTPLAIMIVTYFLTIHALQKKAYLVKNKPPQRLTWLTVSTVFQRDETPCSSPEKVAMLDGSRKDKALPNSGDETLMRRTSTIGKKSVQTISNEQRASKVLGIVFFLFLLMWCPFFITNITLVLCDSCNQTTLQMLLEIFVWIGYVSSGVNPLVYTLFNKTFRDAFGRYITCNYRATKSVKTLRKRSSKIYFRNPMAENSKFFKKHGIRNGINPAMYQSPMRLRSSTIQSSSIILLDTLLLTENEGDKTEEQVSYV
Sequence of S. aureus DNA gyrase (P0A0K8 whole entry): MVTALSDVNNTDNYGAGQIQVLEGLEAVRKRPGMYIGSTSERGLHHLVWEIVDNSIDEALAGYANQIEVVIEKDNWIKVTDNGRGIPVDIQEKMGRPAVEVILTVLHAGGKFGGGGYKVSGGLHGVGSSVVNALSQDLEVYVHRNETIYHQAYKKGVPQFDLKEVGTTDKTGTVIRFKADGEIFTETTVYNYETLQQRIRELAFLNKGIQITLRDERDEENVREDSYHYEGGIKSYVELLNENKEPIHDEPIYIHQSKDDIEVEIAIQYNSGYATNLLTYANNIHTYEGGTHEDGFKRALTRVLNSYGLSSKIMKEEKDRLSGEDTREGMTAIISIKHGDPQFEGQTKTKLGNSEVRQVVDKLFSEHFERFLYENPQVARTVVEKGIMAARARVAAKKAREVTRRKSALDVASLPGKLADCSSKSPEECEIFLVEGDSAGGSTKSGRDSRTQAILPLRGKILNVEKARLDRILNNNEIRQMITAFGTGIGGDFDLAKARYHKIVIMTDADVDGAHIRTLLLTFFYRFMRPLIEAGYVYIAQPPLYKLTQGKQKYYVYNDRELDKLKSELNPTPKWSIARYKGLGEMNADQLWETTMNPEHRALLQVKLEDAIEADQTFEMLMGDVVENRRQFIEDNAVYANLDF
Sequence of S. aureus DNA gyrase (P20831 whole entry): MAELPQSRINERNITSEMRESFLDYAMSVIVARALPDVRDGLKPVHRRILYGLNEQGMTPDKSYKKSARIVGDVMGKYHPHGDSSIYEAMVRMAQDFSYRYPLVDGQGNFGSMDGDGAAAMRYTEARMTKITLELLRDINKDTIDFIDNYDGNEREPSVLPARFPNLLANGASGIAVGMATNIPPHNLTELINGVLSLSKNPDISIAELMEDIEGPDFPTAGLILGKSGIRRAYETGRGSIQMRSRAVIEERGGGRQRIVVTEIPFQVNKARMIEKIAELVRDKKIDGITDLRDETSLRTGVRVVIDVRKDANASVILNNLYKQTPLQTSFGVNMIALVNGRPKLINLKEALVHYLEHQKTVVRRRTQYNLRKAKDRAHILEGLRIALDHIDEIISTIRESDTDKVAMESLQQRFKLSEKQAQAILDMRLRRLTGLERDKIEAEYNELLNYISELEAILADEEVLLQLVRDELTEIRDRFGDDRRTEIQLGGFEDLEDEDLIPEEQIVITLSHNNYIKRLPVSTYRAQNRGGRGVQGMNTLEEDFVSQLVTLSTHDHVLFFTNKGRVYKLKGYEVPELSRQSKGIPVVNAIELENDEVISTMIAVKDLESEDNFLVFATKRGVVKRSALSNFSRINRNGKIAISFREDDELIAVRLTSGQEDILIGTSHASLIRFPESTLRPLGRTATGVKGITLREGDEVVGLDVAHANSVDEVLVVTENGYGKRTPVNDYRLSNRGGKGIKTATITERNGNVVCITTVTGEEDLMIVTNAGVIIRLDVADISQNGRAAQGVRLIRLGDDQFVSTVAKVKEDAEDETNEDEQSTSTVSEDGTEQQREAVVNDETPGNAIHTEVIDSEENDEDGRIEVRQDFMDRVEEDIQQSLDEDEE

COc1ccc2ncc(F)c(CC[C@@]3(O)CO[C@@H]4[C@@H](NCc5cc6c(cn5)OCCO6)CO[C@@H]43)c2n1 [Compound 6, (3R, 3aS,6S,6aR)-6-(((2,3-dihydro-[1,4]dioxino[2,36-c]pyridin-7-yl)methyl)amnino)-3-(2-(3-fluoro-6-methoxy-1,5-naphthyridin-4-yl)ethyl)hexahydrofuro[3,2-b]furan-3-ol]
MIC [1]: ≤ 0.12 µg/mL | MIC [2]: 128 µg/mL (≈ 257 µM) | pIC50 [3]: 6.28 | MIC [4]: 1 µg/mL (≈ 2.01 µM) | Spontaneous mutation frequency (8X MIC) ([5]; 8X agar dilution MIC): 7.89 × 10^−8 (n = 1) | Spontaneous mutation frequency (16X MIC) ([5]; 16X agar dilution MIC): 1.57 × 10^−9 (n = 1) | inhibition at 3 µM [6, 12]: 8.3% | inhibition at 3 µM [6, 13]: 6.9% | inhibition at 30 µM [6, 12]: 19.6% | inhibition at 30 µM [6, 13]: 18% | inhibition at 100 µM [6, 12]: 31.9% | inhibition at 100 µM [6, 13]: 29.7% | inhibition at 100 µM [7]: 95% | inhibition at 100 µM [8]: 96% | Caco-2 permeability A→B [9]: 10.8 ×10⁻⁶ cm/s | Caco-2 permeability B→A [9]: 85.3 ×10⁻⁶ cm/s | CYP1A2 inhibition [10]: Less than 50% | CYP2C9 inhibition [11]: Less than 50%
